Paper PMC4460250, “Systems Pharmacology Dissecting Holistic Medicine for Treatment of Complex Diseases: An Example Using Cardiocerebrovascular Diseases Treated by TCM” (Evidence-based Complementary and Alternative Medicine : eCAM, 2015)
Where two headings read alike, the source gives them in different places.

Columns and labels:
[1] = Human intestinal absorption percentage values of the PreHIA data set (732 compounds, Table S2); settings: class from HIA value
[2] = cited from earlier work
[3] = in vivo
[4] = human, PreHIA data set, value given as fraction

| Class(High: HIA value ≥0.7; Low: HIA value < 0.7) [1] | Compound | HIA(Human Intestinal Absorption) [2, 4] | Class(High: HIA value ≥0.7; Low: HIA value < 0.7) [3] | HIA(Human Intestinal Absorption) ([2]; in vivo) |
| --- | --- | --- | --- | --- |
| High (High: HIA value ≥0.7) | CN(C(=O)C(Cl)Cl)c1ccc(O)cc1 [Diloxanide] | 0.9 |  |  |
| High (High: HIA value ≥0.7) | O=c1n(CCCN2CCN(c3cccc(Cl)c3)CC2)nc2ccccn12 [Trazodone] | 1 |  |  |
| High (High: HIA value ≥0.7) | COc1ccnc(C[S+]([O-])c2nc3ccc(OC(F)F)cc3[nH]2)c1OC (centres unmarked) [Pantoprazole] | 0.77 |  |  |
| High (High: HIA value ≥0.7) | CC1(C)S[C@@H]2[C@H](NC(=O)[C@H](N)c3ccc(O)cc3)C(=O)N2[C@H]1C(=O)O [Amoxicillin] |  |  |  |
| High (High: HIA value ≥0.7) | CCOC(=O)N1CCC(=C2c3ccc(Cl)cc3CCc3cccnc32)CC1 [Loratadine] |  |  |  |
|  | COc1ccccc1OC[C@@H](O)COC(N)=O [Methocarbamol(R)] |  | High (key: High: HIA value ≥0.7; Low: HIA value < 0.7) | 1 |
|  | CC(C)(C)NC[C@@H](O)COc1cccc2c1CCC(=O)N2 [Carteolol(R)] |  | High (key: High: HIA value ≥0.7; Low: HIA value < 0.7) | 0.95 |
|  | CCN[C@H](C)Cc1cccc(C(F)(F)F)c1 [Fenfluramine(R)] |  | High (key: High: HIA value ≥0.7; Low: HIA value < 0.7) | 0.95 |
|  | CCCNC1CCc2nc(N)sc2C1 (stereo in doubt) [Pramipexole(R)] |  | High (key: High: HIA value ≥0.7; Low: HIA value < 0.7) | 0.8 |
|  | CC(C)(C)NC[C@@H](O)c1cc(O)cc(O)c1 [Terbutaline(S)] |  | Low (key: High: HIA value ≥0.7; Low: HIA value < 0.7) | 0.63 |
|  | N[C@@H](CO)C(=O)NNCc1ccc(O)c(O)c1O [Benserazide(S)] |  | High (key: High: HIA value ≥0.7; Low: HIA value < 0.7) | 0.7 |
|  | CC(C)(C)NC[C@H](O)COc1ccccc1C1CCCC1 [Penbutolol(S)] |  | High (key: High: HIA value ≥0.7; Low: HIA value < 0.7) | 1 |
|  | NCC(=O)O [Glycine] |  | High (key: High: HIA value ≥0.7; Low: HIA value < 0.7) | 1 |
|  | CC(C)(C)c1ccc([C@@H](O)CCCN2CCC(C(O)(c3ccccc3)c3ccccc3)CC2)cc1 [Terfenadine(S)] |  | High (key: High: HIA value ≥0.7; Low: HIA value < 0.7) | 1 |
|  | CC(C)(C)NC[C@@H](O)c1ccc(O)c(CO)c1 [Albuterol(S)] |  | High (key: High: HIA value ≥0.7; Low: HIA value < 0.7) | 0.83 |
|  | O=C(c1ccccc1)c1ccc2n1CC[C@H]2C(=O)O [Ketorolac(R)] |  | High (key: High: HIA value ≥0.7; Low: HIA value < 0.7) | 0.95 |
|  | C[C@H]1O[C@H](O[C@H]2[C@H](O)[C@@H](O)[C@@H](O[C@H]3[C@H](O)[C@@H](O)C(O)O[C@@H]3CO)O[C@@H]2CO)[C@H](O)[C@@H](O)[C@@H]1N[C@H]1C=C(CO)[C@@H](O)[C@H](O)[C@H]1O (some centres unmarked) [Acarbose] |  | Low (key: High: HIA value ≥0.7; Low: HIA value < 0.7) | 0.02 |

| Compound | Class(High: HIA value ≥0.7; Low: HIA value < 0.7) [1] | HIA(Human Intestinal Absorption) [2, 4] | Class(High: HIA value ≥0.7; Low: HIA value < 0.7) [3] | HIA(Human Intestinal Absorption) ([2]; in vivo) |
| --- | --- | --- | --- | --- |
| CN1C[C@H](C(=O)N[C@]2(C)O[C@@]3(O)[C@@H]4CCCN4C(=O)[C@H](Cc4ccccc4)N3C2=O)C[C@@H]2c3cccc4[nH]cc(c34)C[C@H]21 [Dihydroergotamine] | Low (Low: HIA value < 0.7) | 0.35 |  |  |
| C[C@@H]1O[C@@H](O[C@H]2C[C@@H](O)[C@]3(CO)[C@H]4[C@H](O)C[C@]5(C)[C@@H](C6=CC(=O)OC6)CC[C@]5(O)[C@@H]4CC[C@]3(O)C2)[C@H](O)[C@H](O)[C@H]1O [Ouabain] | Low (Low: HIA value < 0.7) |  |  |  |
